What was measured:
Test in all cases: Bliss excess, mean over the matrix (fraction); higher = more synergy
NB1 (Neuroblastoma) = test system: NB1 (Neuroblastoma)
How it was run: (§1)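 Cell lines grown in DMEM/F12 or RPMI with 10% FBS were plated in 1536-well plates and held 24 hours at 37°C, 5% CO2 before 72 hours of exposure to two-drug dose matrices, with DMSO typically at 0.2%. CellTiter-Glo 2.0 luminescence gave viability, which was converted to inhibition. Vehicle wells were set to 0 and blank wells to 1. Combination Emax is the second-highest inhibition in the matrix, and Bliss excess is the observed combination effect minus the expected EA + EB − EA·EB, where EA and EB are the single-agent effects.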

[1] = test system: NCI-H596 (Other Solid Carcinomas)
How it was run: as §1

[2] = test system: NCI-H3118 (Head and Neck Carcinoma)
How it was run: as §1

IST-MEL1 (Melanoma) = test system: IST-MEL1 (Melanoma)
How it was run: as §1

[3] = test system: T84 (Colorectal Carcinoma)
How it was run: as §1

[4] = test system: NCI-H1876 (Small Cell Lung Carcinoma)
How it was run: as §1

AM-38 (Glioblastoma) = test system: AM-38 (Glioblastoma)
How it was run: as §1

[5] = test system: BxPC-3 (Pancreatic Carcinoma)
How it was run: as §1

[6] = test system: OAW-28 (Ovarian Carcinoma)
How it was run: as §1

[7] = test system: NAMALWA (Burkitt's Lymphoma)
How it was run: as §1

[8] = test system: PL4 (Pancreatic Carcinoma)
How it was run: as §1

GAK (Melanoma) = test system: GAK (Melanoma)
How it was run: as §1

NCI-H2373 (Mesothelioma) = test system: NCI-H2373 (Mesothelioma)
How it was run: as §1

[9] = test system: MS-1 (Small Cell Lung Carcinoma)
How it was run: as §1

[10] = test system: OVCAR-3 (Ovarian Carcinoma)
How it was run: as §1

[11] = test system: SUP-M2 (T-Cell Non-Hodgkin's Lymphoma)
How it was run: as §1

[12] = test system: KP-4 (Pancreatic Carcinoma)
How it was run: as §1

[13] = test system: NCI-H1341 (Small Cell Lung Carcinoma)
How it was run: as §1

[14] = test system: Raji (Burkitt's Lymphoma)
How it was run: as §1

[15] = test system: MONO-MAC-6 (Acute Myeloid Leukemia)
How it was run: as §1

| SMILES | Bliss excess (NB1 (Neuroblastoma)) | Bliss excess [1] | Bliss excess [2] | Bliss excess (IST-MEL1 (Melanoma)) | Bliss excess [3] | Bliss excess [4] | Bliss excess (AM-38 (Glioblastoma)) | Bliss excess [5] | Bliss excess [6] | Bliss excess [7] | Bliss excess [8] | Bliss excess (GAK (Melanoma)) | Bliss excess (NCI-H2373 (Mesothelioma)) | Bliss excess [9] | Bliss excess [10] | Bliss excess [11] | Bliss excess [12] | Bliss excess [13] | Bliss excess [14] | Bliss excess [15] |
| --- | --- | --- | --- | --- | --- | --- | --- | --- | --- | --- | --- | --- | --- | --- | --- | --- | --- | --- | --- | --- |
| CCN(CCO)CCCOc1ccc2c(Nc3cc(CC(=O)Nc4cccc(F)c4)[nH]n3)ncnc2c1 [AZD2811] + C=CCn1c(=O)c2cnc(Nc3ccc(N4CCN(C)CC4)cc3)nc2n1-c1cccc(C(C)(C)O)n1 [AZD1775] (first compound max 1 µM, partner max 1 µM) | -0.0433 | 0.0114 | -0.0798 | 0.0196 | -0.0627 | -0.0318 | 0.0107 | -0.0099 | 0.0277 | -0.0101 | -0.0002 | -0.0522 | -0.0482 | -0.0205 | -0.0154 | -0.036 | 0.0441 | 0.0747 | 0.0278 | 0.0263 |
| CCN(CCO)CCCOc1ccc2c(Nc3cc(CC(=O)Nc4cccc(F)c4)[nH]n3)ncnc2c1 [AZD2811] + C[C@@H]1COCCN1C2=NC(=NC(=C2)C3(CC3)[S@](=N)(=O)C)C4=C5C=CNC5=NC=C4 [AZD6738] (first compound max 1 µM, 7x7, partner max 10 µM) | -0.0802 | -0.0056 | -0.0682 | -0.0456 | -0.0103 | -0.0316 | -0.0202 | -0.0352 | -0.0207 | 0.0394 | -0.0171 | -0.056 | -0.0139 | -0.0585 | -0.0269 | -0.0545 | -0.0273 | 0.0028 | -0.0562 | -0.0262 |
| CCN(CCO)CCCOc1ccc2c(Nc3cc(CC(=O)Nc4cccc(F)c4)[nH]n3)ncnc2c1 [AZD2811] + O=C(c1cc(Cc2n[nH]c(=O)c3ccccc23)ccc1F)N1CCN(C(=O)C2CC2)CC1 [Olaparib] (first compound max 1 µM, 7x7, partner max 10 µM) | -0.0581 | -0.0372 | 0.0075 | 0.0192 | -0.0067 | -0.114 | 0.0471 | 0.0032 | -0.0474 | 0.0548 | -0.0043 | -0.0049 | 0.0244 | 0.0107 | -0.0051 | -0.0429 | 0.0525 | 0.0125 | 0.0005 | 0.0056 |
| CN(CCO)CC[C@H](CSc1ccccc1)Nc1ccc(S(=O)(=O)NC(=O)c2ccc(N3CCC([C@@H](O)c4ccccc4-c4ccc(Cl)cc4)CC3)cc2)cc1S(=O)(=O)C(F)(F)F [AZD4320] + C1CN(CCC1(C(=O)N[C@@H](CCO)C2=CC=C(C=C2)Cl)N)C3=NC=NC4=C3C=CN4 [Capivasertib] (first compound max 1 µM, 7x7, partner max 3 µM) | -0.0031 | -0.0509 | -0.0476 | -0.0226 | -0.0269 | -0.0593 | -0.0484 | -0.0395 | -0.0345 | 0.0419 | -0.0712 | -0.064 | -0.0351 | -0.0037 | -0.0393 | -0.0192 | -0.0436 | -0.0203 | -0.0109 | -0.0438 |
| CN(CCO)CC[C@H](CSc1ccccc1)Nc1ccc(S(=O)(=O)NC(=O)c2ccc(N3CCC([C@@H](O)c4ccccc4-c4ccc(Cl)cc4)CC3)cc2)cc1S(=O)(=O)C(F)(F)F [AZD4320] + C=CCn1c(=O)c2cnc(Nc3ccc(N4CCN(C)CC4)cc3)nc2n1-c1cccc(C(C)(C)O)n1 [AZD1775] (first compound max 1 µM, partner max 1 µM) | 0.0014 | 0.0361 | -0.0226 | 0.0339 | -0.0408 | 0.0833 | 0.0931 | 0.0575 | 0.0652 | -0.0219 | -0.0586 | -0.0536 | -0.0089 | 0.112 | 0.0007 | 0.0681 | -0.0187 | 0.0676 | -0.0028 | 0.117 |
| CN(CCO)CC[C@H](CSc1ccccc1)Nc1ccc(S(=O)(=O)NC(=O)c2ccc(N3CCC([C@@H](O)c4ccccc4-c4ccc(Cl)cc4)CC3)cc2)cc1S(=O)(=O)C(F)(F)F [AZD4320] + CCN(CCO)CCCOc1ccc2c(Nc3cc(CC(=O)Nc4cccc(F)c4)[nH]n3)ncnc2c1 [AZD2811] (first compound max 1 µM, 7x7, partner max 1 µM) | 0.0994 | -0.0631 | 0.002 | 0.0445 | -0.0305 | 0.0935 | 0.0616 | -0.0001 | 0.0773 | 0.0873 | 0.0251 | -0.0032 | -0.0366 | 0.0349 | -0.005 | 0.0503 | -0.021 | 0.0422 | 0.0111 | 0.145 |
| CN(CCO)CC[C@H](CSc1ccccc1)Nc1ccc(S(=O)(=O)NC(=O)c2ccc(N3CCC([C@@H](O)c4ccccc4-c4ccc(Cl)cc4)CC3)cc2)cc1S(=O)(=O)C(F)(F)F [AZD4320] + CN(C)CCCOc1ccc(-c2ccc3ncc4c(c3c2)n(C2CCOCC2)c(=O)n4C)cn1 [AZD0156] (first compound max 1 µM, 7x7, partner max 1 µM) | -0.0202 | -0.0184 | -0.044 | -0.0151 | -0.0243 | 0.0374 | 0.112 | -0.0239 | -0.0218 | 0.0125 | 0.0463 | -0.0381 | -0.0545 | 0.0275 | -0.0407 | 0.0491 | -0.0604 | 0.0517 | 0.0041 | 0.0324 |
| CN(CCO)CC[C@H](CSc1ccccc1)Nc1ccc(S(=O)(=O)NC(=O)c2ccc(N3CCC([C@@H](O)c4ccccc4-c4ccc(Cl)cc4)CC3)cc2)cc1S(=O)(=O)C(F)(F)F [AZD4320] + C[C@@H]1COCCN1C2=NC(=NC(=C2)C3(CC3)[S@](=N)(=O)C)C4=C5C=CNC5=NC=C4 [AZD6738] (first compound max 1 µM, 7x7, partner max 10 µM) | -0.0023 | -0.047 | 0.0076 | -0.0336 | -0.0344 | 0.0189 | 0.0052 | 0.0373 | 0.0382 | 0.0006 | -0.066 | 0.0029 | -0.0303 | -0.0085 | -0.0231 | -0.0128 | -0.0444 | -0.0017 | 0.0056 | 0.0003 |
| CN(CCO)CC[C@H](CSc1ccccc1)Nc1ccc(S(=O)(=O)NC(=O)c2ccc(N3CCC([C@@H](O)c4ccccc4-c4ccc(Cl)cc4)CC3)cc2)cc1S(=O)(=O)C(F)(F)F [AZD4320] + C[C@@H](Nc1cc(F)cc(F)c1)c1cc(C(=O)N(C)C)cc2c(=O)cc(N3CCOCC3)oc12 [AZD8186] (first compound max 1 µM, 7x7, partner max 3 µM) | -0.0033 | -0.0892 | 0.0019 | 0.0237 | -0.0287 | 0.0682 | -0.0033 | 0.0345 | 0.0055 | 0.0041 | -0.0411 | -0.0727 | -0.0561 | 0.0115 | -0.0135 | 0.0539 | 0.0087 | 0.0517 | 0.0133 | 0.0342 |
| CN(CCO)CC[C@H](CSc1ccccc1)Nc1ccc(S(=O)(=O)NC(=O)c2ccc(N3CCC([C@@H](O)c4ccccc4-c4ccc(Cl)cc4)CC3)cc2)cc1S(=O)(=O)C(F)(F)F [AZD4320] + Cc1cc2ncnn2cc1Nc1ncc2c(n1)n(C1CCOCC1)c(=O)n2C [AZD7648] (first compound max 1 µM, 7x7, partner max 10 µM) | -0.0148 | -0.0422 | -0.0392 | -0.0465 | -0.0314 | 0.0162 | -0.003 | -0.024 | -0.0348 | 0.0013 | -0.0631 | 0.0066 | -0.0389 | -0.0409 | -0.0521 | 0.036 | -0.0578 | 0.0254 | 0.0189 | 0.0106 |
| CN(CCO)CC[C@H](CSc1ccccc1)Nc1ccc(S(=O)(=O)NC(=O)c2ccc(N3CCC([C@@H](O)c4ccccc4-c4ccc(Cl)cc4)CC3)cc2)cc1S(=O)(=O)C(F)(F)F [AZD4320] + Cn1cnc2c(F)c(Nc3ccc(Br)cc3Cl)c(C(=O)NOCCO)cc21 [Selumetinib] (first compound max 1 µM, 7x7, partner max 3 µM) | 0.0308 | -0.0441 | 0.0807 | -0.072 | 0.0142 | 0.0752 | 0.0746 | 0.0749 | 0.0927 | 0.0105 | 0.0473 | 0.0028 | 0.0263 | 0.0229 | 0.0276 | 0.0058 | -0.0025 | 0.0615 | 0.0188 | 0.0401 |
| COc1nnc2ccc(N3CCC(c4ccc(OCCN5CCN(C)C(=O)[C@H]5C)cc4)CC3)nn12 [AZD5153] + C=CCn1c(=O)c2cnc(Nc3ccc(N4CCN(C)CC4)cc3)nc2n1-c1cccc(C(C)(C)O)n1 [AZD1775] (first compound max 1 µM, partner max 1 µM) | -0.0461 | -0.131 | -0.0981 | -0.0398 | -0.0643 | 0.0224 | -0.0594 | -0.028 | -0.0382 | -0.0633 | 0.0251 | -0.158 | -0.0589 | -0.0687 | 0.0107 | -0.0123 | -0.0859 | -0.0121 | -0.105 | -0.0323 |
| COc1nnc2ccc(N3CCC(c4ccc(OCCN5CCN(C)C(=O)[C@H]5C)cc4)CC3)nn12 [AZD5153] + CC1(C)CCC(CN2CCN(c3ccc(C(=O)NS(=O)(=O)c4ccc(NCC5CCOCC5)c([N+](=O)[O-])c4)c(Oc4cnc5[nH]ccc5c4)c3)CC2)=C(c2ccc(Cl)cc2)C1 [Venetoclax] (first compound max 1 µM, 7x7, partner max 1 µM) | -0.0863 | -0.0701 | -0.0517 | -0.0812 | -0.0874 | 0.0029 | -0.135 | -0.0745 | -0.0949 | -0.0558 | 0.0064 | -0.0172 | -0.0769 | 0.0094 | -0.0157 | -0.0172 | -0.0465 | -0.03 | -0.0247 | 0.0179 |
